Data: PubChem BioAssay (NCI)
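Compound exposure: 48 hours, 5 concentrations, 96-well plates. The concentration for 50% growth inhibition is given as GI50. TGI: concentration producing complete growth inhibition.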

Tests used:
Experiment in all cases: growth of human tumour cells (NCI), 48 h
[1] = tested on: BT-549 breast
[2] = tested on: UACC-257 melanoma
[3] = tested on: SR leukemia
[4] = tested on: MOLT-4 leukemia
[5] = tested on: KM12 colon
[6] = tested on: CAKI-1 renal
[7] = tested on: EKVX NSCLC
[8] = tested on: SK-MEL-5 melanoma
[9] = tested on: U251 CNS
[10] = tested on: SK-MEL-2 melanoma
[11] = tested on: HOP-62 NSCLC
[12] = tested on: COLO 205 colon
[13] = tested on: LOX IMVI melanoma
[14] = tested on: HCT-15 colon
[15] = tested on: RXF 393 renal
[16] = tested on: UACC-62 melanoma
[17] = tested on: OVCAR-8 ovarian
[18] = tested on: ACHN renal
[19] = tested on: MCF7 breast
[20] = tested on: SN12C renal
[21] = tested on: T-47D breast
[22] = tested on: SF-539 CNS
[23] = tested on: NCI-H460 lung
[24] = tested on: SF-268 CNS
[25] = tested on: SK-OV-3 ovarian
[26] = tested on: NCI/ADR-RES ovarian
[27] = tested on: MDA-MB-435
[28] = tested on: RPMI-8226 leukemia
[29] = tested on: HL-60(TB) leukemia
[30] = tested on: 786-0 renal
[31] = tested on: HT29 colon
[32] = tested on: HOP-92 NSCLC
[33] = tested on: CCRF-CEM leukemia
[34] = tested on: SK-MEL-28 melanoma
[35] = tested on: M14 melanoma
[36] = tested on: SF-295 CNS
[37] = tested on: IGROV1 ovarian
[38] = tested on: A498 renal
[39] = tested on: UO-31 renal
[40] = tested on: MDA-MB-468 breast
[41] = tested on: NCI-H522 lung
[42] = tested on: NCI-H226 lung
[43] = tested on: OVCAR-3 ovarian
[44] = tested on: HCT-116 colon
[45] = tested on: TK-10 renal
[46] = tested on: HS 578T breast
[47] = tested on: A549 NSCLC
[48] = tested on: HCC-2998 colon
[49] = tested on: MALME-3M melanoma
[50] = tested on: OVCAR-4 ovarian
[51] = tested on: OVCAR-5 ovarian
[52] = tested on: DU-145 prostate
[53] = tested on: NCI-H23 lung
[54] = tested on: SNB-19 CNS
[55] = tested on: MDA-MB-231 breast
[56] = tested on: SW-620 colon
[57] = tested on: K-562 leukemia
[58] = tested on: SNB-75 CNS
[59] = tested on: PC-3 prostate

Molecule `COc1ccc(CCN2C(=O)/C(=C/c3csc(C#N)n3)SC2=S)cc1` has a GI50 [1] of 8.93 µM, a TGI [1] of 21.7 µM and a GI50 [2] of 11.7 µM. The TGI [2] was 27.1 µM, the GI50 [3] was 3590 nM and the TGI [3] was 32.4 µM. For the same molecule, the GI50 [4] was 3520 nM, the TGI [4] was 53.1 µM and the GI50 [5] was 3.82 µM. The TGI [5] was 14.1 µM, the GI50 [6] was 16.9 µM and the TGI [6] was 31.4 µM. The GI50 [7] was 18.5 µM, the TGI [7] was 34.4 µM and the GI50 [8] was 15.1 µM. For the same molecule, the TGI [8] was 28.3 µM, the GI50 [9] was 13.1 µM and the TGI [9] was 26.4 µM. The GI50 [10] was 12.2 µM, the TGI [10] was 24.9 µM and the GI50 [11] was 17.5 µM. For the same molecule, the TGI [11] was 32 µM, the GI50 [12] was 16 µM and the TGI [12] was 29.5 µM. It also gave a GI50 [13] of 3040 nM, a TGI [13] of 10.5 µM and a GI50 [14] of 6.19 µM. The TGI [14] was 19.7 µM, the GI50 [15] was 10.4 µM and the TGI [15] was 22.1 µM. It also gave a GI50 [16] of 10.9 µM, a TGI [16] of 22.9 µM and a GI50 [17] of 15.2 µM. For the same molecule, the TGI [17] was 29.7 µM, the GI50 [18] was 14.1 µM and the TGI [18] was 27.1 µM. It also gave a GI50 [19] of 4.31 µM, a TGI [19] of 15.9 µM and a GI50 [20] of 12.3 µM. The TGI [20] was 24.8 µM, the GI50 [21] was 5.7 µM and the TGI [21] was 30.2 µM. The GI50 [22] was 10.5 µM, the TGI [22] was 22.3 µM and the GI50 [23] was 18.4 µM. For the same molecule, the TGI [23] was 39 µM, the GI50 [24] was 15 µM and the TGI [24] was 32.7 µM. It also gave a GI50 [25] of 18.8 µM, a TGI [25] of 37.4 µM and a GI50 [26] of 15.9 µM. It also gave a TGI [26] of 32.3 µM, a GI50 [27] of 12.5 µM and a TGI [27] of 28.3 µM. It also gave a GI50 [28] of 4.29 µM, a TGI [28] of 30.6 µM and a GI50 [29] of 14.5 µM. The TGI [29] was 46.8 µM, the GI50 [30] was 10.2 µM and the TGI [30] was 22.2 µM. The GI50 [31] was 14.1 µM, the TGI [31] was 27.1 µM and the GI50 [32] was 2130 nM. For the same molecule, the TGI [32] was 15.1 µM, the GI50 [33] was 3.13 µM and the TGI [33] was 9.66 µM. It also gave a GI50 [34] of 12.1 µM, a TGI [34] of 24.5 µM and a GI50 [35] of 11.5 µM. It also gave a TGI [35] of 25.1 µM, a GI50 [36] of 17.3 µM and a TGI [36] of 33.9 µM. It also gave a GI50 [37] of 17.9 µM, a TGI [37] of 34.6 µM and a GI50 [38] of 16.7 µM. For the same molecule, the TGI [38] was 30.3 µM, the GI50 [39] was 10.8 µM and the TGI [39] was 22.6 µM. For the same molecule, the GI50 [40] was 3030 nM, the TGI [40] was 13.2 µM and the GI50 [41] was 3030 nM. The TGI [41] was 14 µM, the GI50 [42] was 14.5 µM and the TGI [42] was 28.8 µM. For the same molecule, the GI50 [43] was 10.1 µM, the TGI [43] was 21.7 µM and the GI50 [44] was 7.69 µM. The TGI [44] was 20.7 µM, the GI50 [45] was 10.7 µM and the TGI [45] was 27.7 µM. It also gave a GI50 [46] of 21.8 µM, a TGI [46] of 64.9 µM and a GI50 [47] of 21.3 µM. The TGI [47] was 56.1 µM, the GI50 [48] was 15.9 µM and the TGI [48] was 29.4 µM. For the same molecule, the GI50 [49] was 14.3 µM, the TGI [49] was 28.9 µM and the GI50 [50] was 15.5 µM. For the same molecule, the TGI [50] was 47 µM, the GI50 [51] was 15.6 µM and the TGI [51] was 29 µM. The GI50 [52] was 4.6 µM, the TGI [52] was 15.6 µM and the GI50 [53] was 14.6 µM. For the same molecule, the TGI [53] was 27.7 µM, the GI50 [54] was 14.9 µM and the TGI [54] was 28.1 µM. For the same molecule, the GI50 [55] was 11.6 µM, the TGI [55] was 24.1 µM and the GI50 [56] was 8.45 µM. The TGI [56] was 21.7 µM, the GI50 [57] was 3520 nM and the TGI [57] was over 100 µM. For the same molecule, the GI50 [58] was 16.1 µM, the TGI [58] was 31 µM and the GI50 [59] was 12 µM. It also gave a TGI [59] of 26.7 µM.
For `O=C(c1ccc(Cl)cc1)C1[C@H](c2ccccc2Br)[C@@H](c2ccccc2)NC12C(=O)Nc1ccccc12` (some centres undefined), the GI50 [1] was 2.4 µM, the TGI [1] was 10.5 µM and the GI50 [2] was 4.84 µM. For the same molecule, the TGI [2] was 20.7 µM, the GI50 [3] was 2000 nM and the TGI [3] was 14 µM. It also gave a GI50 [4] of 2060 nM, a TGI [4] of 18.5 µM and a GI50 [5] of 7.5 µM. For the same molecule, the TGI [5] was 25.2 µM, the GI50 [6] was 1.67 µM and the TGI [6] was over 56 µM. It also gave a GI50 [7] of 6.22 µM, a TGI [7] of over 56 µM and a GI50 [8] of 2.42 µM. For the same molecule, the TGI [8] was 9.07 µM, the GI50 [9] was 3.16 µM and the TGI [9] was 16 µM. The GI50 [10] was 4.44 µM, the TGI [10] was 11.9 µM and the GI50 [11] was 6.54 µM. For the same molecule, the TGI [11] was 16.5 µM, the GI50 [12] was 7.71 µM and the TGI [12] was 15.6 µM. For the same molecule, the GI50 [13] was 1990 nM, the TGI [13] was 8.86 µM and the GI50 [14] was 4.03 µM. It also gave a TGI [14] of over 56 µM, a GI50 [15] of 1.77 µM and a TGI [15] of 7.57 µM. It also gave a GI50 [16] of 2.11 µM, a TGI [16] of 8.87 µM and a GI50 [17] of 6.72 µM. It also gave a TGI [17] of 19.9 µM, a GI50 [18] of 6.01 µM and a TGI [18] of 44.4 µM. For the same molecule, the GI50 [19] was 1.81 µM, the TGI [19] was over 56 µM and the GI50 [20] was 2.74 µM. The TGI [20] was 10 µM, the GI50 [21] was 3.46 µM and the TGI [21] was 49 µM. It also gave a GI50 [22] of 7.14 µM, a TGI [22] of 15.7 µM and a GI50 [23] of 2.3 µM. The TGI [23] was 11.2 µM, the GI50 [24] was 2.92 µM and the TGI [24] was 40.2 µM. The GI50 [25] was 3.87 µM, the TGI [25] was 37 µM and the GI50 [27] was 2.58 µM. For the same molecule, the TGI [27] was 10.8 µM, the GI50 [28] was 5.43 µM and the TGI [28] was 32.6 µM. It also gave a GI50 [29] of 1.92 µM, a TGI [29] of 19.1 µM and a GI50 [30] of 7.3 µM. It also gave a TGI [30] of 21.9 µM, a GI50 [31] of 2.46 µM and a TGI [31] of 9.82 µM. It also gave a GI50 [32] of 2060 nM, a TGI [32] of 14.5 µM and a GI50 [33] of 3.27 µM. The TGI [33] was 29.8 µM, the GI50 [34] was 7.44 µM and the TGI [34] was 16.3 µM. It also gave a GI50 [35] of 4.86 µM, a TGI [35] of 13.7 µM and a GI50 [36] of 3.79 µM. It also gave a TGI [36] of 15.2 µM, a GI50 [37] of 5.92 µM and a TGI [37] of 26.1 µM. For the same molecule, the GI50 [38] was 8.75 µM, the TGI [38] was 21.6 µM and the GI50 [39] was 2.49 µM. For the same molecule, the TGI [39] was 29.3 µM, the GI50 [40] was 1110 nM and the TGI [40] was 3.33 µM. The GI50 [41] was 1300 nM, the TGI [41] was 5.72 µM and the GI50 [42] was 3.85 µM. For the same molecule, the TGI [42] was 13.6 µM, the GI50 [43] was 2.39 µM and the TGI [43] was 14 µM. For the same molecule, the GI50 [44] was 2.15 µM, the TGI [44] was 9.06 µM and the GI50 [45] was 9.48 µM. It also gave a TGI [45] of 40.7 µM, a GI50 [46] of 2.51 µM and a TGI [46] of 15.6 µM. The GI50 [47] was 2.71 µM, the TGI [47] was 25 µM and the GI50 [48] was 6.32 µM. The TGI [48] was 17.8 µM, the GI50 [49] was 6.46 µM and the TGI [49] was 14.5 µM. For the same molecule, the GI50 [50] was 7.11 µM, the TGI [50] was over 56 µM and the GI50 [51] was 6.34 µM. For the same molecule, the TGI [51] was 29.7 µM, the GI50 [52] was 2.66 µM and the TGI [52] was 16.4 µM. It also gave a GI50 [53] of 5.78 µM, a TGI [53] of 17.3 µM and a GI50 [54] of 10.8 µM. For the same molecule, the TGI [54] was over 56 µM, the GI50 [55] was 1.72 µM and the TGI [55] was 7.13 µM. For the same molecule, the GI50 [56] was 3.43 µM, the TGI [56] was 33.9 µM and the GI50 [57] was 2040 nM. It also gave a TGI [57] of 28.3 µM, a GI50 [58] of 0.765 µM and a TGI [58] of 27.9 µM. For the same molecule, the GI50 [59] was 2.03 µM and the TGI [59] was 18.6 µM.
